One assay has as its target hERG channel (Homo sapiens (Human), UniProt Q12809). In words: Cardiac safety evaluation, hERG study (QPatch whole-cell recording). In kind it is cell-based. The following applies: CHO cell line expressing hERG channel. The method, then: In this experiment, a CHO cell line stably transfected with hERG cDNA and expressing p15 hERG channel was used. Cells were incubated at 37° C. in a humidified incubator containing 5% CO2 in medium (Ham's F12, 10% v/v FBS, 100 μg/mL hygromycin B, 100 μg/mL geneticin) (from Invitrogen). Cells were grown under the above conditions and reached approximately 80-90% of the confluency. Cells were treated with Detachin (Genlantis) for 3 to 5 minutes. The medium was titrated 15 to 20 times at 37° C., and then the cells were resuspended in CHO-S-SFM II medium (serum-free medium, Invitrogen) buffered with HEPES (25 mM). Cells used for QPatch studies must meet the following criteria: Most suspension cells should be single and isolated under microscopy; viability should be greater than 95%; cell density in the final suspension should be in the range of 3 to 8×10^6 cells/mL before application to the QPatch stir chamber. Cells meeting the above conditions can be used for recordings within 4 hours of harvest.
Test compounds were made into 10 mM DMSO stock solutions. Six doses (30, 10, 3, 1, 0.3 and 0.1 μM) were selected to obtain the fitted curves and IC50. The final DMSO concentration was 0.1% or less. The IC50 of the positive control cisapride was assessed at doses of 3, 1, 0.3, 0.1, 0.03 and 0.01 μM, respectively. Composition of […] for electrophysiological recordings: CaCl2 2 mM, MgCl2 1 mM, KCl 4 mM, NaCl 145 mM, Glucose 10 mM, HEPES 10 mM, pH 7.4 (NaOH), composition of external solution: CaCl2 […], MgCl2 1.75 mM, KCl 120 mM, HEPES 10 mM, EGTA 5 mM, Na-ATP 4 mM, pH 7.25 (KOH) (all reagents used were from sigma).
Whole-cell recordings were performed using automated QPatch (Sophion Biosciences, Denmark). Cells were recorded for 120 s to assess current stability. The above voltages were then applied to the cells every 15 s throughout the procedure. […]
The data were analyzed with Sophion Assay software (determination software V5.0), Microsoft Excel and Graphpad Prism 5.0 to obtain IC50 of compounds.
(In general: The hERG channel carries a current that helps repolarise heart muscle cells.)

The next assay has as its target CYP2D6 (Homo sapiens (Human), UniProt P10635). In words: Cytochrome oxidase P450 inhibition study, CYP2D6. The format is in vitro ADME. Particulars: human liver microsomes; read-out: IC50 2D6. The procedure:
(§1) LC-MS/MS methods were used to evaluate the inhibitory effects of compounds on CYP2C19, 2D6 and 3A4 subtypes. In this method, the test compound was mixed with a solution of human liver microsomes containing CYP model substrates, and incubated together under the addition of NADPH, then the inhibitory IC50 of the compound on CYP2C19, 2D6 and 3A4 was calculated by measuring the amount of metabolites of the model substrate in the reaction solution. The specific experimental method is as follows:
(§2) Compounds to be tested were prepared as stock solutions at 10 mM concentration with DMSO and then diluted to 4 mM with acetonitrile solution. At the same time, the corresponding reference inhibitor solutions for CYP subtypes were prepared, for example, the reference inhibitor was Ketoconazole, then these two compounds were prepared separately ([…] of inhibitor DMSO stock solution+[…] of acetonitrile), and the samples prepared under the above conditions were at 400× concentration. Then, the above solution was 3-fold diluted with DMSO/acetonitrile mixture (v/v: 40/60) to prepare the final test solution, and seven concentration points were set for each test compound, and the initial test final concentration was 10 μM. […]
(§3) […] of human liver microsome solution (0.2 mg/mL) was added to each well containing the test compound in the 96-well plate, and then 2 mL of the final test sample of test compounds prepared by serial dilution as described above was added thereto; for each well corresponding to the reference inhibitors, […] of human liver microsome solution (0.2 mg/mL) and 1 mL of the final test sample were added. […] The inhibition rate was determined by comparing the amount of model substrate metabolites at each test concentration without test substance addition, in the GraphPad Prism 5.0 software, the logarithm of the test concentration was used as the abscissa and the inhibition rate was used as the ordinate to perform a linear regression (Sigmoidal (non-linear) dose-response model) analysis to obtain the IC50 value of the test compound.
On the technique in general: Liver microsomes are vesicles of endoplasmic reticulum, rich in cytochrome P450 enzymes.

The next assay addresses CYP2C19 (Homo sapiens (Human), UniProt P33261). In words: Cytochrome oxidase P450 inhibition study, CYP2C19. The format is in vitro ADME. Particulars: human liver microsomes; read-out: IC50 2C19. The method, then: as §1, §2, §3
Assay [1] concerns LOVO human colon cancer cell line. Briefly: Cell proliferation assay (Cell titer glo). The format is cell-based. Particulars: LOVO cells, 72 hours. The method, then:
In the present disclosure, cell assays were used to evaluate the biological activity of compounds. LOVO (Nanjing Cobioer), a human colon cancer cell line, was cultured in a Dulbecco's Modified Eagle's medium 96-well plate, supplemented with 10% fetal bovine serum and 1% P/S, and the culture environment was 37° C. and 5% CO2. Compound concentrations were ranged from 4.5 nM to 30 μM. The stock solution of the test compound was dissolved in DMSO and added to the medium at the indicated concentration, and incubated for 72 hours. Negative control cells were treated with vehicle only. In some experiments, known ATR inhibitors were added as positive controls. Cell viability was evaluated using the Cell titer glo kit (CTG, Promega) under the instructions of the product specification. The data were analyzed using Graphpad software, and IC50 values and compound fitting curves were obtained (Table 2).
In general terms: Cellular ATP, detected with luciferase, serves as a proxy for viable cell number.

The source of these data is US20240025899A1, “TRIHETEROCYCLIC DERIVATIVE, AND PHARMACEUTICAL COMPOSITION AND APPLICATION THEREOF” (SHANGHAI DE NOVO PHARMATECH CO., LTD., priority 2020, published 2024).

Counter-ions that a name gives are not always drawn.

Sequence of CYP2C19 (P33261 whole entry): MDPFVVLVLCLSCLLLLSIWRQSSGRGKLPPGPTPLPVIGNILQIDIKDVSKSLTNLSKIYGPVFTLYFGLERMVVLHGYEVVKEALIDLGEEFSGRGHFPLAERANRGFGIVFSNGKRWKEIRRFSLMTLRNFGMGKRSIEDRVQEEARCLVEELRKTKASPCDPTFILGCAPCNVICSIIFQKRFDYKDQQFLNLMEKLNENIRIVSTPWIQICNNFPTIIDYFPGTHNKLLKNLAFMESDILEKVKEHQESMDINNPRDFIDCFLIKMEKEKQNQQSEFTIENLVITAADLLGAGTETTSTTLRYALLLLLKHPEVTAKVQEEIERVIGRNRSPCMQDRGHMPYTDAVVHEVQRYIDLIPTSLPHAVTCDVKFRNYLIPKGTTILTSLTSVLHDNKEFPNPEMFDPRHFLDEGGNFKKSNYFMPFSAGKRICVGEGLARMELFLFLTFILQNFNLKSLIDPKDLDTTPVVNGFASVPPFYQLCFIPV
Sequence of hERG channel (Q12809 whole entry): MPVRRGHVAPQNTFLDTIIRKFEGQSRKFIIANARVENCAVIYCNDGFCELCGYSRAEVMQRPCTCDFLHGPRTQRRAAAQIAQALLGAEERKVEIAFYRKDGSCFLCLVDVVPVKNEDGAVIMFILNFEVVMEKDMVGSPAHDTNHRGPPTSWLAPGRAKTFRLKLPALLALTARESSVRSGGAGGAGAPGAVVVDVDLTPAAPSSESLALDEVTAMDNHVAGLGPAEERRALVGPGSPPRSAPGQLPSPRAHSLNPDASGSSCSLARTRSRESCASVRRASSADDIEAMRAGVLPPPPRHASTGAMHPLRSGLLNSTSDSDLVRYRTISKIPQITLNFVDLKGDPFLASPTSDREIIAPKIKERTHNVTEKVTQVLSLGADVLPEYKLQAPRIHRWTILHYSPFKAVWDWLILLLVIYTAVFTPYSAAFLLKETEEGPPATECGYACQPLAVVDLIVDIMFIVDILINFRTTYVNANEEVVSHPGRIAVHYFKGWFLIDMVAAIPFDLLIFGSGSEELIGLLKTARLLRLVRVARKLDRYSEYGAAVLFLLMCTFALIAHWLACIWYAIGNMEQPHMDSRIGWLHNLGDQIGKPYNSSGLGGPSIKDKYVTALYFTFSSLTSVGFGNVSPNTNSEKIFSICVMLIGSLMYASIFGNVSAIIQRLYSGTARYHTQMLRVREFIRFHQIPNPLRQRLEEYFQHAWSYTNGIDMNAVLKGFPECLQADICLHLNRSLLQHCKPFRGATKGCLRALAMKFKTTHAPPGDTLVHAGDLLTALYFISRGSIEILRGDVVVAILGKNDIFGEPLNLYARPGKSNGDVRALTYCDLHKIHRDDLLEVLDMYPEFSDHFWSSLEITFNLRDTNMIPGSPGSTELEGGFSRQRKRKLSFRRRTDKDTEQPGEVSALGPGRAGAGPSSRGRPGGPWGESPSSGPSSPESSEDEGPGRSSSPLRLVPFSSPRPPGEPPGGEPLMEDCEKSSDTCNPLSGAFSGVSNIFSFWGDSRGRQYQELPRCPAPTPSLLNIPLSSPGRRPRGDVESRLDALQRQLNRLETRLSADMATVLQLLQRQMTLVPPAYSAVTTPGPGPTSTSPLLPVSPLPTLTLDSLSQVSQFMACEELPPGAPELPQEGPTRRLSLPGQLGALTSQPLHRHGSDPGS
Sequence of CYP2D6 (P10635 whole entry): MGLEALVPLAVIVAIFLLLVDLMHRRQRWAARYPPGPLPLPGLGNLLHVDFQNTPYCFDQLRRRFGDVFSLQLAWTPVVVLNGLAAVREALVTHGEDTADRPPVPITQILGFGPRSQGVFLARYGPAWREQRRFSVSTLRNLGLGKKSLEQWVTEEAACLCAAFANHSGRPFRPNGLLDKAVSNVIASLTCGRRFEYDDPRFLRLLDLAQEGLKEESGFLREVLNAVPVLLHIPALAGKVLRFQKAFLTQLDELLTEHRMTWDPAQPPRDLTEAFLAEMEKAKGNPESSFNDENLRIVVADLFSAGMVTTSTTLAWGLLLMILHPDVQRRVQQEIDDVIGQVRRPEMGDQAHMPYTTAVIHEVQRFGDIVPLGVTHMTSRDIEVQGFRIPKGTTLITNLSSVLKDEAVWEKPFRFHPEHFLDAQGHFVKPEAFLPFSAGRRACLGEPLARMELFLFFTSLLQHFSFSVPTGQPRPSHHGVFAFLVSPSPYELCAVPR

Broadly, the IC50 is the concentration that inhibits the measured activity by half. `C[C@@H]1COCCN1c1nc2c(cnn2-c2cc[nH]n2)c2c1ccn2S(C)(=O)=O` [Compound 1, (R)-3-methyl-4-(1-(methylsulfonyl)-6-(1H-pyrazol-3-yl)-1,6-dihydropyrazolo[3,4-b]pyrrolo[2,3-d]pyridin-4-yl)morpholine trifluoroacetate]: the IC50 on hERG channel was over 30 µM; at CYP2D6, over 10 µM; at CYP2C19, over 10 µM; in assay [1], 0.0296 µM.

Take `C[C@@H]1COCCN1c1nc2c(cnn2-c2cc[nH]n2)c2c1CCN2S(C)(=O)=O` [Compound 2, (R)-3-methyl-4-(1-(methylsulfonyl)-6-(1H-pyrazol-3-yl)-1,2,3,6-tetrahydropyrazolo[3,4-b]pyrrolo[2,3-d]pyridin-4-yl)morpholine trifluoroacetate]: the IC50 on hERG channel was over 30 µM; at CYP2D6, over 10 µM; on CYP2C19, over 10 µM; in assay [1], 0.0373 µM.
